# In PubChem BioAssay (NCI):
#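 Results reflect a 48-hour exposure of cells in 96-well plates to compound at five concentrations. Definition used: TGI = concentration required for complete inhibition of growth.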
# How the values were obtained:
# Assay in all cases: NCI anticancer screen, dose series, 48 h
# COLO 205 colon = tested on: COLO 205 colon
# IGROV1 ovarian = tested on: IGROV1 ovarian
# HT29 colon = tested on: HT29 colon
# NCI-H522 lung = tested on: NCI-H522 lung
# HCT-116 colon = tested on: HCT-116 colon
# NCI-H460 lung = tested on: NCI-H460 lung
# UACC-62 melanoma = tested on: UACC-62 melanoma
# LXFL 529 NSCLC = tested on: LXFL 529 NSCLC
# EKVX NSCLC = tested on: EKVX NSCLC
# HCC-2998 colon = tested on: HCC-2998 colon
# U251 CNS = tested on: U251 CNS
# OVCAR-4 ovarian = tested on: OVCAR-4 ovarian
# M14 melanoma = tested on: M14 melanoma
# DLD-1 colon = tested on: DLD-1 colon
# M19-MEL melanoma = tested on: M19-MEL melanoma
# SF-268 CNS = tested on: SF-268 CNS
# SN12C renal = tested on: SN12C renal
# SK-OV-3 ovarian = tested on: SK-OV-3 ovarian
# SNB-78 CNS = tested on: SNB-78 CNS
# CAKI-1 renal = tested on: CAKI-1 renal
# A549 NSCLC = tested on: A549 NSCLC
# SF-295 CNS = tested on: SF-295 CNS
# UO-31 renal = tested on: UO-31 renal
# SK-MEL-5 melanoma = tested on: SK-MEL-5 melanoma
# OVCAR-5 ovarian = tested on: OVCAR-5 ovarian
# SF-539 CNS = tested on: SF-539 CNS
# RPMI-8226 leukemia = tested on: RPMI-8226 leukemia
# ACHN renal = tested on: ACHN renal
# HOP-92 NSCLC = tested on: HOP-92 NSCLC
# KM12 colon = tested on: KM12 colon
# A498 renal = tested on: A498 renal
# SW-620 colon = tested on: SW-620 colon
# 786-0 renal = tested on: 786-0 renal
# SNB-19 CNS = tested on: SNB-19 CNS
# SK-MEL-2 melanoma = tested on: SK-MEL-2 melanoma
# HOP-62 NSCLC = tested on: HOP-62 NSCLC
# RXF 393 renal = tested on: RXF 393 renal
# OVCAR-8 ovarian = tested on: OVCAR-8 ovarian
# DMS 114 small cell lung = tested on: DMS 114 small cell lung
# UACC-257 melanoma = tested on: UACC-257 melanoma
# NCI-H23 lung = tested on: NCI-H23 lung
# LOX IMVI melanoma = tested on: LOX IMVI melanoma
# MALME-3M melanoma = tested on: MALME-3M melanoma
# OVCAR-3 ovarian = tested on: OVCAR-3 ovarian
# SR leukemia = tested on: SR leukemia
# SK-MEL-28 melanoma = tested on: SK-MEL-28 melanoma
# NCI-H226 lung = tested on: NCI-H226 lung
# K-562 leukemia = tested on: K-562 leukemia
# SNB-75 CNS = tested on: SNB-75 CNS
# TK-10 renal = tested on: TK-10 renal
# MOLT-4 leukemia = tested on: MOLT-4 leukemia
# KM20L2 colon = tested on: KM20L2 colon
# HL-60(TB) leukemia = tested on: HL-60(TB) leukemia
# DMS 273 small cell lung = tested on: DMS 273 small cell lung
# XF 498 CNS = tested on: XF 498 CNS
# CCRF-CEM leukemia = tested on: CCRF-CEM leukemia
smiles,measurement,setting,value
Cc1ccc2nc(NC(=O)C(=O)C(C(=O)c3ccc4ccccc4c3)C3OC(=O)c4ccccc43)sc2c1 (stereo not drawn),TGI,COLO 205 colon,34.6 µM
same,TGI,IGROV1 ovarian,44.3 µM
same,TGI,HT29 colon,31.3 µM
same,TGI,NCI-H522 lung,26.3 µM
same,TGI,HCT-116 colon,20.8 µM
same,TGI,NCI-H460 lung,18 µM
same,TGI,UACC-62 melanoma,25 µM
same,TGI,LXFL 529 NSCLC,19.2 µM
same,TGI,EKVX NSCLC,44.5 µM
same,TGI,HCC-2998 colon,23.7 µM
same,TGI,U251 CNS,15.5 µM
same,TGI,OVCAR-4 ovarian,> 100 µM
same,TGI,M14 melanoma,28.2 µM
same,TGI,DLD-1 colon,32.7 µM
same,TGI,M19-MEL melanoma,32.6 µM
same,TGI,SF-268 CNS,31.3 µM
same,TGI,SN12C renal,31.6 µM
same,TGI,SK-OV-3 ovarian,> 100 µM
same,TGI,SNB-78 CNS,27.7 µM
same,TGI,CAKI-1 renal,52.3 µM
same,TGI,A549 NSCLC,53.8 µM
same,TGI,SF-295 CNS,21 µM
same,TGI,UO-31 renal,28.6 µM
same,TGI,SK-MEL-5 melanoma,22.6 µM
same,TGI,OVCAR-5 ovarian,23.9 µM
same,TGI,SF-539 CNS,9.21 µM
same,TGI,RPMI-8226 leukemia,> 100 µM
same,TGI,ACHN renal,46.1 µM
same,TGI,HOP-92 NSCLC,15.2 µM
same,TGI,KM12 colon,37.4 µM
same,TGI,A498 renal,21.3 µM
same,TGI,SW-620 colon,22.9 µM
same,TGI,786-0 renal,18.5 µM
same,TGI,SNB-19 CNS,26.4 µM
same,TGI,SK-MEL-2 melanoma,29.3 µM
same,TGI,HOP-62 NSCLC,26.6 µM
same,TGI,RXF 393 renal,8.79 µM
same,TGI,OVCAR-8 ovarian,62.1 µM
same,TGI,DMS 114 small cell lung,29.3 µM
same,TGI,UACC-257 melanoma,31.8 µM
same,TGI,NCI-H23 lung,18.3 µM
same,TGI,LOX IMVI melanoma,27.7 µM
same,TGI,MALME-3M melanoma,22.9 µM
same,TGI,OVCAR-3 ovarian,> 100 µM
same,TGI,SR leukemia,62.1 µM
same,TGI,SK-MEL-28 melanoma,19.3 µM
same,TGI,NCI-H226 lung,5.43 µM
CC(C)N(C(=O)C12C3C4C1C1C2C3C41C(=O)C(C)(C)C)C(C)C (stereo not drawn),TGI,COLO 205 colon,> 100 µM
same,TGI,IGROV1 ovarian,> 100 µM
same,TGI,HT29 colon,> 100 µM
same,TGI,NCI-H522 lung,56.8 µM
same,TGI,HCT-116 colon,> 100 µM
same,TGI,UACC-62 melanoma,> 100 µM
same,TGI,LXFL 529 NSCLC,> 100 µM
same,TGI,EKVX NSCLC,> 100 µM
same,TGI,HCC-2998 colon,> 100 µM
same,TGI,U251 CNS,> 100 µM
same,TGI,OVCAR-4 ovarian,> 100 µM
same,TGI,M14 melanoma,> 100 µM
same,TGI,DLD-1 colon,> 100 µM
same,TGI,M19-MEL melanoma,> 100 µM
same,TGI,SF-268 CNS,> 100 µM
same,TGI,K-562 leukemia,> 100 µM
same,TGI,SN12C renal,> 100 µM
same,TGI,SNB-75 CNS,> 100 µM
same,TGI,SK-OV-3 ovarian,> 100 µM
same,TGI,SNB-78 CNS,> 100 µM
same,TGI,CAKI-1 renal,> 100 µM
same,TGI,TK-10 renal,> 100 µM
same,TGI,A549 NSCLC,> 100 µM
same,TGI,SF-295 CNS,> 100 µM
same,TGI,UO-31 renal,> 100 µM
same,TGI,SK-MEL-5 melanoma,> 100 µM
same,TGI,OVCAR-5 ovarian,> 100 µM
same,TGI,SF-539 CNS,> 100 µM
same,TGI,RPMI-8226 leukemia,> 100 µM
same,TGI,ACHN renal,> 100 µM
same,TGI,KM12 colon,> 100 µM
same,TGI,MOLT-4 leukemia,> 100 µM
same,TGI,A498 renal,> 100 µM
same,TGI,SW-620 colon,> 100 µM
same,TGI,786-0 renal,> 100 µM
same,TGI,SNB-19 CNS,> 100 µM
same,TGI,SK-MEL-2 melanoma,> 100 µM
same,TGI,HOP-62 NSCLC,> 100 µM
same,TGI,OVCAR-8 ovarian,> 100 µM
same,TGI,DMS 114 small cell lung,> 100 µM
same,TGI,UACC-257 melanoma,> 100 µM
same,TGI,NCI-H23 lung,> 100 µM
same,TGI,KM20L2 colon,> 100 µM
same,TGI,LOX IMVI melanoma,> 100 µM
same,TGI,HL-60(TB) leukemia,63.7 µM
same,TGI,MALME-3M melanoma,> 100 µM
same,TGI,OVCAR-3 ovarian,> 100 µM
same,TGI,SK-MEL-28 melanoma,> 100 µM
same,TGI,DMS 273 small cell lung,> 100 µM
same,TGI,XF 498 CNS,> 100 µM
same,TGI,CCRF-CEM leukemia,> 100 µM
